# Experimental data from patent US10201558B2, “Compositions of selenoorganic compounds and methods of use thereof” (Alltech, Inc., priority 2014, dated 2019).
# Entries after “also recorded” stand apart in the source; their conditions may differ.
# Legend:
# Type in all cases: cell-based, human
# [1] = system: PSEN2; assay: PSEN2 expression in IMR-32 cells
# [2] = system: Total Tau; assay: Western blot of Total Tau protein in IMR-32 cells; conditions: 150 ppb, 24 hours
# Method: (§1) IMR-32 cells were seeded on 6-well plates and then treated with control and various compounds for 6 hours and 24 hours, as described above. After treatments, cells were rinsed with ice-cold PBS and lysed in ice-cold RIPA buffer containing complete proteinase and phosphatase inhibitors (Thermo-Fisher Scientific, Waltham, Mass.) on ice for 30 min Cell lysates were collected using a cell scraper and transfer pipette and then centrifuged at 12000×g for 30 min at 4° C. to remove the DNA pellet and obtain the protein extract. Protein levels in the supernatant of these cell lysates were determined using the Pierce Micro-BCA protein assay kit (Thermo Scientific-Piece Biotechnology, Rockford, Ill.) according to the manufacturer's protocol […]
# (§2) Positive signals on the membrane blots were detected using Amersham's enhanced chemiluminescence (ECL) Western Blotting Prime Detection reagents (GE healthcare Lifescience, Pittsburgh, Pa.). Images of these luminescence signals on the membrane blots were captured using the LI-COR Odyssey Fc Image system (Lincoln, Nebr.). […] Protein band densities in the Western blots were determined using the Li—COR Image studio software or NIH ImageJ software, and then normalized by ACTB protein level in each sample. […]
# [3] = system: pAKT; assay: Western blot of pAKT in IMR-32 cells; conditions: 6 hours and 24 hours
# Method: as §1, §2
# [4] = system: p38; assay: Western blot of total p38 protein in IMR-32 cells; conditions: 150 ppb, 24 hours
# Method: as §1, §2
# [5] = system: GSK3B; assay: Western blot of total GSK3B protein in IMR-32 cells; conditions: 150 ppb, 24 hours
# Method: as §1, §2
# [6] = system: phosphorylated FOXO4 (pFOXO4 T28); assay: Western blot of phosphorylated FOXO4 in IMR-32 cells; conditions: for phosphorylation of FOXO4 (pFOXO4) levels: 6 hours; for pFOXO4 Threonine 28 (T28) levels: 24 hours
# Method: (§3) IMR-32 cells were seeded on 6-well plates and then treated with control and various compounds for 6 hours and 24 hours, as described above. After treatments, cells were rinsed with ice-cold PBS and lysed in ice-cold RIPA buffer containing complete proteinase and phosphatase inhibitors (Thermo-Fisher Scientific, Waltham, Mass.) on ice for 30 min Cell lysates were collected using a cell scraper and transfer pipette and then centrifuged at 12000×g for 30 min at 4° C. to remove the DNA pellet and obtain the protein extract. Protein levels in the supernatant of these cell lysates were determined using the Pierce Micro-BCA protein assay kit (Thermo Scientific-Piece Biotechnology, Rockford, Ill.) according to the manufacturer's protocol
# (§4) For Western blot analysis, five micrograms of total proteins from control (0 ppb)- and compound(s)-treated cells were subjected to SDS-PAGE gel separation and then transferred to PVDF membranes, as described previously (Reddy, Liu et al. 2008 Science). Membranes were blocked in a phosphate-buffered saline (PBS) containing 5% (w/v) of bovine serum albumin (Sigma, St. Louis, Mo.) and incubated with specific primary antibodies followed by the incubation with HRP-conjugated anti-mouse or anti-rabbit secondary antibodies (1:5000 dilution, Cell Signaling Inc.). All primary antibodies except PGC1a (Abcam, Cambridge, Mass.), G6pc (Santa Cruz, Dallas, Tex.) and Actb (Li-Cor, Lincoln, Nebr.) were purchased from Cell Signaling Inc., Beverly, Mass.
# (§5) Positive signals on the membrane blots were detected using Amersham's enhanced chemiluminescence (ECL) Western Blotting Prime Detection reagents (GE healthcare Lifescience, Pittsburgh, Pa.). Images of these luminescence signals on the membrane blots were captured using the LI-COR Odyssey Fc Image system (Lincoln, Nebr.). The same membrane blot was stripped and re-blotted with another antibody as described in the GE WB ECL-prime-detection protocol (GE Healthcare Lifescience, Pittsburgh, Pa.). Protein band densities in the Western blots were determined using the Li—COR Image studio software or NIH ImageJ software, and then normalized by ACTB protein level in each sample. Data are presented as mean±SEM of three samples per each group.
# [7] = system: APOE4; assay: Western blot of APOE4 protein in IMR-32 cells; conditions: 150 ppb
# Method: as §1, §2
# [8] = system: phosphorylated Tau (pTau S396, pTau S400/T403/S404); assay: Western blot of phosphorylated Tau in IMR-32 cells; conditions: 150 ppb, 24 hours
# Method: as §3, §4, §5
# To determine whether selenium Compound C, Compound D or Compound E can potentially contribute to diminished tangle formation in AD, the phosphorylation of two AD biomarkers, pTau S396 (Serine 396) and pTauS400/T403/5404 (Serine 400, Threonine 403, and Serine 404), as well as the Total Tau protein levels was assessed in IMR-32 cells. Phosphorylation of Tau at the indicated amino acid sites has been associated with destabilization of the Tau protein and the eventual formation of tangles. For this purpose, cells were treated with 150 ppb of Compound C, Compound D, or Compound E for 6 hours and 24 hours, and then subjected to Western blot analysis (see FIG. 4A). Mean±SEM, n=3.
# [9] = system: UCP3; assay: QRT-PCR of UCP3 mRNA in IMR-32 cells; conditions: 150 ppb, 6 hours
# Method: (§6) Human IMR-32 cells were seeded on gelatinized 6-well (6.5×10^5 cells/well) or 24-well (1.3×10^5 cells/well) plates. Cells were treated with control (0 ppb) or various compounds for 6 hours or 24 hours. Total RNA from these cells was isolated using Trizol (Invitrogen) according to the manufacturer's protocol, and then incubated with DNase I to remove any potential contaminated genomic DNA. Then RNA samples were subjected to real-time PCR analysis using the Applied-Bioscience's RT kit and predesigned Taqman probes (Invitrogen), as described previously (Lan et al EMBO J 2003). The mRNA levels of UCP1, UCP2, UCP3, SLC25A27 (UCP4), SLC25A14 (UCP5), PSEN1, Nicastrin, GSK3B, MAPK11-14, PPARG, APOE, RCAN1, RCAN1.1, G6PC, INSR, IGF1R and FOXO4 were measured. Three to six samples were analyzed in each treatment group. Data were normalized by Actin B (ACTB) or Glyceraldehyde Phosphate Dehydrogenase (GAPDH) mRNA levels in each sample and are presented as mean±SEM of 3-6 samples.
# [10] = system: PSEN1; assay: QRT-PCR of PSEN1 mRNA in IMR-32 cells
# Method: as §6
# RNA samples were extracted, purified, and subjected to real-time PCR analysis using Applied-Bioscience's RT kit and Taqman probes (Invitrogen) as described previously in Example 4. Protein samples were also prepared from cell lysates and western blot analysis was performed as previously described in Example 4. Data are presented as mean±SEM of 3 protein samples and 4 RNA samples per group. The relative mRNA and protein expression levels of PSEN1 and NICASTRIN, were measured. All primary antibodies were purchased from Cell Signaling Inc., Beverly, Mass.
# [11] = system: UCP5 (SLC25A14); assay: QRT-PCR of UCP5 (SLC25A14) mRNA in IMR-32 cells; conditions: 150 ppb, 6 hours
# Method: as §6
SMILES,PSEN2 expression [1],total Tau protein level [2],pAKT protein levels [3],Total p38 protein levels [4],total GSK3B protein levels [5],phosphorylation of FOXO4 (pFOXO4) levels [6],pFOXO4 Threonine 28 (T28) levels [6],APOE4 protein levels ([7]; 6 hours),APOE4 protein levels ([7]; 24 hours),phosphorylation of Tau at 5400/T403/5404 [8],phosphorylation of Tau at S396 [8],ratio of total pTau at both S396 and S400/T403/S404 to total Tau proteins [8],UCP3 mRNA expression [9],"PSEN1 mRNA expression, dose response ([10]; 75 ppb and 150 ppb, 24 hours)","PSEN1 mRNA expression ([10]; 150 ppb, 6 hours and 24 hours)",UCP5 (SLC25A14) mRNA expression [11],PSEN1 mRNA expression ([10]; 24 hours)
"C[Se]C[C@H]1O[C@@H](n2cnc3c(N)ncnc32)C(O)C1O (stereo in doubt) [Compound C, 5′-deoxy-5′-methylselenoadenosine]",no downregulation,did not affect,not visibly decreased,visibly decreased; also recorded: statistically significant decrease,visibly decreased; also recorded: statistically significant decrease,decrease,decreased,not for 6 hour,markedly decreased,significantly inhibited,not at S396,significantly attenuated,significant decrease; also recorded: inhibited,Significant dose-dependent decreases,significantly reduced,trend towards decreased; also recorded: trend towards reduced,
"C[Se]C[C@H](NC(=O)CC[C@H](N)C(=O)O)C(=O)O [Compound E, γ-L-glutamyl-Se-methyl-L-selenocysteine]",no downregulation,significantly down-regulated,not visibly decreased,not observed; also recorded: not Compound E,not observed; also recorded: no significant difference,decrease,decreased,,,significantly down-regulated,significantly down-regulated,trend towards reduced,did not have any effect,,,did not have any effect,stimulated
